Consider 88 compounds from a melting point compilation (Tetko et al.; mined from patent text by program, amines drawn as free bases though some values may be those of a salt).

For orientation: melting point means the temperature of the solid-liquid transition.

Some results are limits rather than exact numbers.

With `CCNc1nc(C)c(-c2ccnc(Nc3ccc(N4CCOCC4)c(C)c3)n2)s1`, the melting point fell in the range of 213 to 214 °C.
The result for `Clc1ccc2c(NCCN3CCCCC3)ccnc2c1` reads 148 to 151 °C; that for `COc1cc(CCc2ccc(C)cc2)cc(OC)c1OC`, 51 to 52 °C.
With `CC(C)(C)OC(=O)NC(NC(=O)OC(C)(C)C)Nc1ccc(CCc2csc(NC(=O)c3ccccc3)n2)cc1` the figure was 143 to 144 °C.
The result for `C[C@@H](n1ncn(-c2ccc(OCC(F)(F)C(F)F)cc2)c1=O)[C@](O)(C=O)c1ccc(F)cc1F` reads 134 to 136 °C; that for `CN1CCC(OC2c3ccccc3CCn3cc(-c4ccccc4)nc32)CC1` (stereo not drawn), 113 °C.
Take `CC(=O)Nc1ccc(C(=O)Nc2ccc(C(=O)N3CCCCc4ccccc43)cc2)c(Cl)c1`: the melting point fell in the range of 214 to 243 °C.
With `C#CCn1c(-c2cc(Cl)nc(Cl)c2)nc(C)c(CC)c1=O` the figure was 143 to 144 °C; with `Cc1cc(-c2ccc(C#N)cc2)c(C)n1Cc1cnc(Cl)c(CO)c1`, 128 to 129 °C.
On to `O=C(O)c1cccc(CN2C(=O)C3(COc4cc5c(cc43)CCO5)c3ccccc32)c1` (stereo not drawn), for which the melting point is greater than 250 °C.
Regarding `CCOC(=O)C1=C(C)NC(C)=C(C(=O)OC)C1c1ccccc1Cl` (stereo not drawn), the melting point is 125 to 127 °C.
The result for `CC(C)c1cccc(-n2c(C(=O)Nc3ccc4c(ccn4C)c3)cc3cc(OC(F)(F)F)ccc32)c1` reads 164 to 165 °C; that for `Nc1nc[nH]c(=O)c1O`, greater than 300 °C; that for `CN1C(=O)C(c2cccc(-c3cccnc3F)c2)(c2cc(C=O)n(CCF)c2)N=C1N` (stereo not drawn), 218 to 221 °C.
Compound `CCOC(=O)C1(C)Sc2ccccc2NC1=O` (stereo not drawn) registered a melting point of 109 to 111 °C.
With `COc1cc2c(cc1F)C(CCCN1CCN(C)CC1)(c1ccccc1F)C(=O)N2S(=O)(=O)c1ccc(OC(C)C)cc1` (stereo not drawn), the melting point stood at 72 °C.
For the compound `Cc1ccc2c(c1)N=C(N1CCN(C)CC1)c1cc(C)sc1O2`, the melting point lay in the range of 146 to 148 °C.
Consider `CCOC(=O)c1cn(Cc2csnn2)c2cc(F)c(F)cc2c1=O`, for which the melting point lay within 234 to 237 °C.
The result for `CC(=O)N(O)C(C)c1cccc(Nc2ccccc2C(=O)NN)c1Cl` (stereo not drawn) reads 193 to 195 °C; that for `CNC(=O)NS(=O)(=O)c1cc2c(cc1OC)OCCC2CNC(=O)c1cc(F)ccc1OC` (stereo not drawn), 193 to 194 °C; that for `CS(=O)(=O)c1cnc(NC(=O)c2cccc(O)c2)s1`, 271 to 272 °C.
On to `CC(=O)c1ccc(-c2ccc(C(N)=NO)o2)cc1`, for which the melting point lay in the range of 197 to 199 °C.
The result for `O=C(O)CCCCCC1=CCCC1=O` reads 70 to 72 °C.
In turn, `CCn1cc(C(=O)O)c(=O)c2ccc(C3CCCCC3)cc21` yielded a melting point of 222 to 224 °C.
With `Cc1c(F)c(N)cc([N+](=O)[O-])c1F` the figure was 106 to 107 °C.
In turn, `N#Cc1cc(/C=C/C(c2cc(Cl)c(Cl)c(Cl)c2)C(F)(F)F)ccc1-n1cnc(NC(=O)C2CC2)n1` (stereo not drawn) showed a melting point of 109 to 112 °C.
As to `Cc1c(CC(C)C(=O)c2cn(C)c3ccccc23)ncn1C(c1ccccc1)(c1ccccc1)c1ccccc1` (stereo not drawn), the melting point lay within 209 to 210 °C.
With `N#Cc1ccc2c(c1)NC(=O)C2c1ncnc2nn(C3CCCC3)cc12` (stereo not drawn) the figure was 340 to 344 °C; with `CCOc1c(C)c(N2CCN(c3ccc(OC)cc3)CC2)c(C)c2c1OC(C)(C)C2=O`, 109 to 112 °C; with `CC1(C)CCC(C)(C)c2cc(NCc3ccc(C(=O)O)cc3)ccc21`, 225 to 231 °C.
The compound `OCC1N=c2c(ccc3c2=CC=N3)O1` (stereo not drawn) gave a melting point of 169 to 172 °C.
The result for `Cc1ccc2c(NCc3ccc(NC(=O)c4ccc(F)cc4)cc3)nc(NCCc3ccccn3)nc2c1` reads 112 to 115 °C; that for `CC(=O)Nc1c(Cl)cc2c(=O)c(C(=O)O)cn3c2c1CCC3C` (stereo not drawn), 234 to 236 °C; that for `COC(=O)C(C)(C)NC(=O)c1cc2c(n(CC3CCCCC3)c1=O)CCCCCC2`, 260 to 263 °C.
With `CC(=O)NCc1ccc(CN2CCN(c3cc(Cl)nc(Cl)n3)CC2)cc1` the figure was 165 to 166 °C; with `Cc1cc(C)c2ncc(C(=O)O)c(-c3ccccc3Cl)c2c1`, 234 to 235 °C.
The result for `CCNC(=NC#N)NCCN(CC1CCc2ccccc2O1)C(=O)OC(C)(C)C` (stereo not drawn) reads 115 °C; that for `CC(=O)c1ccc(OCCCC(=O)O)cc1F`, 110 to 111 °C.
In the case of `Cc1ccc(-c2ccccc2C(=O)NC(C)C#N)cc1` (stereo not drawn), the melting point lay in the range of 102 to 104 °C.
Take `COCCOCCN1C(=O)C2(c3cc4c(cc3OC2OC)OCCO4)c2c(OC)cccc21` (stereo not drawn): the melting point lay within 109 to 110 °C.
Compound `CCn1cc(C(=O)NCc2ccc(Cl)cc2)c(=O)c2cc(CCl)sc21` registered a melting point of 199 to 200 °C.
With `O=c1oc2c(c(=O)n1C1CCCCCCC1)CCC2` the figure was 48 to 51 °C; with `CC(=O)Nc1nc(NCC(O)CO)c(Cl)nc1[N+](=O)[O-]` (stereo not drawn), 130 to 131 °C.
The result for `O=C(NN1CCN(C(=O)C=Cc2ccccc2)CC1)c1ccc(F)cc1` reads 235 to 240 °C; that for `NCCCNc1ccc(NCCCN)c2c1C(=O)c1c(O)ccc(O)c1C2=O`, 115 to 130 °C; that for `N#Cc1ccc(C2=NOC3(CCN(C(=O)CCC(=O)O)CC3)C2)cc1`, 167 to 170 °C.
With `O=C1CC(Sc2nnc(S)s2)C(=O)O1` (stereo not drawn) the figure was 194 to 196 °C; with `COc1ccc(NC(=O)NCc2cccc3c2CN(C2CCC(=O)NC2=O)C3=O)cc1` (stereo not drawn), 320 to 322 °C; with `O=C(O)c1cc(Cl)c(Cl)c(-c2ccc(Cl)cc2)n1`, 229 °C.
Compound `COC(=O)c1cc2cc(Br)ccc2nc1C` yielded a melting point of 150 to 151 °C.
Turning to `C[C@H]1CCCC(C)(C)[C@@H]1[C@H](O)c1ccc(F)c(C#N)c1`, the melting point lay in the range of 118 to 119 °C.
The result for `CCOC(=O)c1cnc2c(c(C)nn2C)c1N(C)S(=O)(=O)c1ccc(Oc2ccncc2)cc1` reads 117 to 119 °C; that for `CNc1nc(-c2ccc(-c3ccccc3)s2)c2cc(OC)c(OC)cc2n1`, 201 to 203 °C; that for `Cc1cc2ncnc(N3CCc4ccc(Cl)cc43)c2cc1C`, 199 °C.
The result for `NC(=O)NC(=O)C(Cl)(Cl)CC1(c2cc(Cl)cc(Cl)c2)CO1` (stereo not drawn) reads 186 to 189 °C; that for `O=S(=O)(c1ccc(Cl)cc1)C(Cc1ccncc1)c1cc(F)ccc1F` (stereo not drawn), 129 °C; that for `CN(SSN(C)S(=O)(=O)c1ccccc1)S(=O)(=O)c1ccccc1`, 101 to 106 °C.
As to `COC(=O)C(CO)Nc1ccccc1[N+](=O)[O-]` (racemic), the melting point lay within 138 to 140 °C.
Consider `O=C(CCCCCNC(=O)CCc1ccccc1)NO`, for which the melting point amounted to 107 °C.
For `S=C(S)CCc1ccccc1`, the melting point lay in the range of 57 to 59 °C.
With `CCCc1c(OCCCCCOc2c(C)c(C)c3c(c2C)CC[C@](C)(C(=O)O)O3)ccc(C(C)=O)c1O` the figure was 92.5 to 95 °C; with `CCOC(=O)c1cnn(-c2ccc(Cl)cc2Cl)c1C#N`, 79 to 81 °C; with `O=C1NC(=O)C(Cc2ccc(C(=O)/C=C/c3ccccc3)cc2)S1` (stereo not drawn), 147 to 149 °C.
The compound `Cc1ccc([N+](=O)[O-])c(CO)c1C` came in with a melting point of 48 to 51 °C.
The result for `CC(C)c1cccc(C(C)C)c1NC(=O)CN1CC2(CCCCC2)N(c2ccccc2)S1(=O)=O` reads 140 to 142 °C; that for `Oc1ccc(C2COc3c(ccc(O)c3O)C2)cc1` (stereo not drawn), 225 to 226 °C; that for `NS(=O)(=O)c1ccc(-c2cnn(Cc3ccc(F)cc3)c(=O)c2-c2ccc(F)cc2)cc1`, 237 to 239 °C.
The result for `COc1ccc(C2=NN(C3CCN(C(=O)NC(C)(C)C)CC3)C(=O)[C@@H]3CC=CC[C@H]23)cc1OC` reads 164 to 166 °C; that for `Cc1ccc(N)cc1Nc1cc(-c2cccnc2)ccn1`, 183 to 186 °C.
The result for `COc1ccc(S(=O)(=O)NCC2CCN(C[C@H]3COc4ccc(Cl)cc4O3)CC2)cc1OC` reads 99 to 101 °C; that for `ClCOc1ccc(-c2ccc(Cl)cc2)cc1`, 68 to 70 °C; that for `CC(C)=C1Cc2ccc3nc(C)oc3c2C1=O`, 156 to 159 °C.
Compound `CCOC(=O)C(=O)NNC(=O)c1ccc(OCC)cc1` displayed a melting point of 126 °C.
The compound `CCC(CO)NC(=O)C(C)(C)c1ccc(-c2cccc(COC)c2)cc1` (stereo not drawn) came in with a melting point of 73 to 75 °C.
Compound `c1cn2nc(N3CCCC3)c3c(c2n1)CCCC3` registered a melting point of 128 °C.
`CN(C)C(=O)ON=C1SC(=C(C#N)C#N)SC1(C)C` showed a melting point of 175 to 177 °C.
`Cc1ccc(S(=O)(=O)OCC2Cc3cc(C(F)(F)F)cc(Br)c3O2)cc1` (stereo not drawn): the melting point lay within 95 to 97 °C.
The result for `COc1nc(C)n2nc(SCc3ccccc3)nc2c1Cl` reads 115 to 116 °C; that for `COC(=O)c1ccccc1S(=O)(=O)NC(=O)Nc1nc(C)cc(OC(F)F)n1`, 162 to 164 °C; that for `C=C1C(=C)C2OC1C1=C2CC2C(O)C=CC(=O)C2C1` (stereo not drawn), 110 °C.
The result for `CNc1ccc(-c2nc(N3CCOCC3)c3sc(C(C)(C)Nc4ncc(C(=O)NO)cn4)cc3n2)cn1` reads 200 to 205 °C.
In turn, `CC(C)(C)OC(=O)N1CCC(Oc2ccc(C3=NNC(=O)CC3)c(F)c2)CC1` returned a melting point of 146 to 148 °C.
With `CCOC(=O)C1=C(COCc2nnnn2CCN2CCN(C(=O)NC)CC2)NC(C)=C(C(=O)OC)C1c1cccc(Cl)c1Cl` (stereo not drawn) the figure was 95 to 96 °C.
The result for `COC(=O)c1c(C(F)(F)C(F)(F)F)[nH]c(C(F)(F)C(F)(F)F)c1C(=O)OC` reads 68 to 71 °C.
With `CCCC1CCC(c2ccc(-c3ccc(N=C=S)cc3)cc2)CC1` (stereo not drawn) the figure was 149 °C; with `CCOC(=O)Oc1ccc(N)c(C(=O)O)c1`, 157 to 158 °C; with `Cc1cc2cc(O)ccc2c(Oc2ccc(/C=C/C(=O)O)cc2)c1-c1ccc(O)cc1`, 162 to 164 °C.
Compound `CCC(O)(CC)c1ccc(-c2cc(-c3c[nH]nc3-c3cccc(C)n3)ccc2F)nc1` had a melting point of 94 to 95 °C.
